From patent publication US9416141B2 (University of Washington through its Center for …, priority 2012, dated 2016) come the findings set out here.

Where a name gives a salt, the structure may show the parent alone. Where only a bound is given, the exact number is not on record here.

This test relates to hair cells. The test can be described thus: Hair cell toxicity assay in zebrafish (neomycin-induced hair cell death, DASPEI staining of neuromasts). The test is classed as in vivo. To be noted: Danio rerio; for Emax at 8.3 µM: maximum observed @ 8.3 μM test compound; for Emax at 8.3 µM / Emax at 0.9 µM / Emax at 2.8 µM / Emax at 25 µM: 200 micromolar neomycin, read-out: Max HC Protection (HCmax, % hair cell survival); for EC50: zebrafish larvae 5-7 dpf, 1 h pre-treatment, then 200 micromolar neomycin + test compound 30 min, read-out: HC50 (concentration that would produce 50% hair cell survival); for Emax at 0.9 µM: maximum observed @ 0.9 μM test compound; for Emax at 2.8 µM: maximum observed @ 2.8 μM test compound; for Emax at 25 µM: maximum observed @ 25 μM test compound. An outline of the steps:
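Hair cell survival, as % of untreated controls, came from DASPEI scoring (0-2 each, ten neuromasts on one side) in 5-7 dpf larvae. These had 1 h compound pre-exposure (0.010-25 μM), then 200 μM neomycin with compound for 30 min. HCmax is peak protection; HC50 interpolated between flanking concentrations only when ≥50% survive.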

In the case of `CC1(C)Cc2c(sc(NC(=O)Nc3ccc(Cl)cc3)c2C(N)=O)C(C)(C)N1` [Example 90, 2-[3-(4-Chlorophenyl)ureido]-5,5,7,7-tetramethyl-4,5,6,7-tetrahydrothieno[2,3-c]pyridine-3-carboxamide hydrochloride], the Emax at 8.3 µM was 99% and the EC50 was 1 to 10 µM. `NC(=O)c1c(NC(=O)Nc2ccc(Cl)cc2)sc2c1CCC(=O)C2` [Example 91, 2-[3-(4-Chlorophenyl)ureido]-6-oxo-4,5,6,7-tetrahydrobenzo[b]thiophene-3-carboxamide]: the Emax at 0.9 µM came to 15%. Regarding `NC(=O)c1c(NC(=O)Nc2ccc(Cl)cc2)sc2c1CCOC2` [Example 92, 2-[3-(4-Chlorophenyl)ureido]-5,7-dihydro-4H-thieno[2,3-c]pyran-3-carboxamide], the Emax at 2.8 µM was found to be 22%. Take `CCN1CCc2c(sc(NC(=O)Nc3ccc4cc(F)ccc4c3)c2C(N)=O)C1` [Example 93, 6-ethyl-2-[3-(6-fluoronaphthalen-2-yl)ureido]-4,5,6,7-tetrahydrothieno[2,3-c]pyridine-3-carboxamide hydrochloride]: the Emax at 25 µM was determined as 97% and the EC50 fell in the range of 1 to 10 µM. On to `CCN1CCc2c(sc(NC(=O)Nc3ccc(Cl)s3)c2C(N)=O)C1` [Example 94, 2-[3-(5-Chlorothiophen-2-yl)ureido]-6-ethyl-4,5,6,7-tetrahydrothieno[2,3-c]pyridine-3-carboxamide hydrochloride], for which the Emax at 25 µM turned out to be 69% and the EC50 is over 10 µM. Turning to `CCN1CCc2c(sc(NC(=O)Nc3ccc(Cl)cc3)c2C(=O)N2CCOCC2)C1` [Example 95, 1-(4-chlorophenyl)-3-[6-ethyl-3-(morpholine-4-carbonyl)-4,5,6,7-tetrahydrothieno[2,3-c]pyridin-2-yl]urea hydrochloride], the Emax at 25 µM worked out at 78% and the EC50 lay in the range of 1 to 10 µM.

`CCN1CCc2c(sc(NC(=O)Nc3ccc(Cl)cc3)c2C(=O)NCC(F)(F)F)C1` [Example 96, 2-[3-(4-Chlorophenyl)ureido]-6-ethyl-N-(2,2,2-trifluoroethyl)-4,5,6,7-tetrahydrothieno[2,3-c]pyridine-3-carboxamide hydrochloride]: the Emax at 8.3 µM worked out at 57% and the EC50 lay within 1 to 10 µM. For the molecule `CCN1CCc2c(sc(NC(=O)Nc3ccc(Cl)cc3)c2C(=O)NCC2CC2)C1` [Example 97, 2-[3-(4-Chlorophenyl)ureido]-N-(cyclopropylmethyl)-6-ethyl-4,5,6,7-tetrahydrothieno[2,3-c]pyridine-3-carboxamide hydrochloride], the Emax at 8.3 µM came to 37%.

For the molecule `CCN1CCc2c(sc(NC(=O)Nc3ccc(Cl)cc3)c2C(=O)NCc2cccnc2)C1` [Example 98, 2-[3-(4-Chlorophenyl)ureido]-6-ethyl-N-(pyridin-3-ylmethyl)-4,5,6,7-tetrahydrothieno[2,3-c]pyridine-3-carboxamide dihydrochloride], the Emax at 25 µM was found to be 52% and the EC50 is over 10 µM. Consider `CCN1CCc2c(sc(NC(=O)Nc3ccc(Cl)cc3)c2C(=O)NCCN(C)C)C1` [Example 99, 2-[3-(4-Chlorophenyl)ureido]-N-[2-(dimethylamino)ethyl]-6-ethyl-4,5,6,7-tetrahydrothieno[2,3-c]pyridine-3-carboxamide dihydrochloride], for which the Emax at 2.8 µM came to 18%. As to `CCN1CCc2c(sc(NC(=O)Nc3ccc(Cl)cc3)c2C(=O)NCCN2CCOCC2)C1` [Example 100, 2-[3-(4-Chlorophenyl)ureido]-6-ethyl-N-(2-morpholinoethyl)-4,5,6,7-tetrahydrothieno[2,3-c]pyridine-3-carboxamide dihydrochloride], the Emax at 25 µM was 59% and the EC50 is 1 to 10 µM. Consider `CCN1CCc2c(sc(NC(=O)Nc3ccc(Cl)cc3)c2C(=O)NCCO)C1` [Example 101, 2-[3-(4-Chlorophenyl)ureido]-6-ethyl-N-(2-hydroxyethyl)-4,5,6,7-tetrahydrothieno[2,3-c]pyridine-3-carboxamide hydrochloride], for which the Emax at 25 µM worked out at 74% and the EC50 was in the range of 1 to 10 µM. Take `CCN1CCc2c(sc(NC(=O)Nc3ccc(Cl)cc3)c2C(=O)NC2COC2)C1` [Example 102, 2-[3-(4-Chlorophenyl)ureido]-6-ethyl-N-(oxetan-3-yl)-4,5,6,7-tetrahydrothieno[2,3-c]pyridine-3-carboxamide]: the Emax at 25 µM is 22%. For `CCN1CCc2c(sc(NC(=O)Nc3ccc(Cl)cc3)c2-c2nc(C)no2)C1` [Example 103, 1-(4-chlorophenyl)-3-[6-ethyl-3-(3-methyl-1,2,4-oxadiazol-5-yl)-4,5,6,7-tetrahydrothieno[2,3-c]pyridin-2-yl]urea hydrochloride], the Emax at 0.9 µM was 12%. Consider `CCN1CCc2c(sc(NC(=O)Nc3ccc(Cl)cc3)c2-c2nnco2)C1` [Example 104, 1-(4-chlorophenyl)-3-[6-ethyl-3-(1,3,4-oxadiazol-2-yl)-4,5,6,7-tetrahydrothieno[2,3-c]pyridin-2-yl]urea hydrochloride], for which the Emax at 25 µM was 0%.

Take `CCN1CCc2c(sc(NC(=O)C3(c4ccc(Cl)cc4)CC3)c2C(N)=O)C1` [Example 105, 2-[1-(4-chlorophenyl)cyclopropanecarboxamido]-6-ethyl-4,5,6,7-tetrahydrothieno[2,3-c]pyridine-3-carboxamide]: the Emax at 25 µM worked out at 7%. On to `CCN1CCc2c(sc(NC(=O)N(C)c3ccc(Cl)cc3)c2C(N)=O)C1` [Example 106, 2-[3-(4-chlorophenyl)-3-methylureido]-6-ethyl-4,5,6,7-tetrahydrothieno[2,3-c]pyridine-3-carboxamide hydrochloride], for which the Emax at 25 µM worked out at 23%. Turning to `CCN1CCc2c(sc(NC(N)=O)c2C(N)=O)C1` [Example 107, 6-ethyl-2-ureido-4,5,6,7-tetrahydrothieno[2,3-c]pyridine-3-carboxamide hydrochloride], the Emax at 2.8 µM is 36%.

On to `CCN1CCc2c(sc(NC=O)c2C(N)=O)C1` [Example 108, 6-ethyl-2-formamido-4,5,6,7-tetrahydrothieno[2,3-c]pyridine-3-carboxamide hydrochloride], for which the Emax at 0.9 µM was determined as 13%.

For `CCN1CCc2c(sc(Nc3c(Nc4ccc(Cl)cc4)c(=O)c3=O)c2C(N)=O)C1` [Example 109, 2-({2-[(4-chlorophenyl)amino]-3,4-dioxocyclobut-1-en-1-yl}amino)-6-ethyl-4,5,6,7-tetrahydrothieno[2,3-c]pyridine-3-carboxamide hydrochloride], the Emax at 25 µM was 22%. For the molecule `CCOC(=O)c1c(Nc2c(Nc3ccc(Cl)cc3)c(=O)c2=O)sc2c1CCN(CC)C2` [Example 110, Ethyl 2-({2-[(4-chlorophenyl)amino]-3,4-dioxocyclobut-1-en-1-yl}amino)-6-ethyl-4,5,6,7-tetrahydrothieno[2,3-c]pyridine-3-carboxylate hydrochloride], the Emax at 25 µM amounted to 69% and the EC50 is over 10 µM. `CCN1CCc2c(ccc(NC(=O)Nc3ccc(Cl)cc3)c2C(N)=O)C1` [Example 112, 6-[3-(4-chlorophenyl)ureido]-2-ethyl-1,2,3,4-tetrahydroisoquinoline-5-carboxamide hydrochloride]: the Emax at 25 µM amounted to 49%. Take `CCN1CCc2c(sc(N(CC)C(=O)Nc3ccc(Cl)cc3)c2C(N)=O)C1` [Example 113, 2-[3-(4-chlorophenyl)-1-ethylureido]-6-ethyl-4,5,6,7-tetrahydrothieno[2,3-c]pyridine-3-carboxamide hydrochloride]: the Emax at 2.8 µM was found to be 12%. For `CCN1CCCc2c(sc(NC(=O)Nc3ccc(Cl)cc3)c2C(N)=O)C1` [Example 114, 2-[3-(4-chlorophenyl)ureido)-7-ethyl-5,6,7,8-tetrahydro-4H-thieno[2,3-c]azepine-3-carboxamide hydrochloride], the Emax at 25 µM amounted to 97% and the EC50 lay in the range of 1 to 10 µM. Regarding `CCN1CCc2sc(NC(=O)Nc3ccc(Cl)cc3)c(C(N)=O)c2CC1` [Example 115, 2-[3-(4-Chlorophenyl)ureido]-6-ethyl-5,6,7,8-tetrahydro-4H-thieno[2,3-d]azepine-3-carboxamide hydrochloride], the Emax at 25 µM is 99% and the EC50 is 1 to 10 µM. As for `CCN1CCc2sc(NC(=O)Nc3ccc(Cl)cc3)c(C(N)=O)c2C1` [Example 116, 2-[3-(4-Chlorophenyl)ureido]-5-ethyl-4,5,6,7-tetrahydrothieno[3,2-c]pyridine-3-carboxamide hydrochloride], the Emax at 25 µM was 82% and the EC50 is 1 to 10 µM. In the case of `CC(C)(O)CN1CCc2c(sc(NC(=O)Nc3ccc(Cl)cc3)c2C(N)=O)C1` [Example 119, 2-[3-(4-chlorophenyl)ureido]-6-(2-hydroxy-2-methylpropyl)-4,5,6,7-tetrahydrothieno[2,3-c]pyridine-3-carboxamide], the Emax at 25 µM worked out at 65% and the EC50 was 1 to 10 µM. Regarding `CN1C(C)(C)Cc2c(sc(NC(=O)Nc3ccc(Cl)cc3)c2C(N)=O)C1(C)C` [Example 120, 2-[3-(4-chlorophenyl)ureido]-5,5,6,7,7-pentamethyl-4,5,6,7-tetrahydrothieno[2,3-c]pyridine-3-carboxamide hydrochloride], the Emax at 2.8 µM stood at 81% and the EC50 was in the range of 1 to 10 µM.

As to `CC(C)C[N+]1(C)CCc2c(sc(NC(=O)Nc3ccc(Cl)cc3)c2C(N)=O)C1` (centres unmarked) [Example 135, 3-carbamoyl-2-[3-(4-chlorophenyl)ureido]-6-isobutyl-6-methyl-4,5,6,7-tetrahydrothieno[2,3-c]pyridin-6-ium iodide], the Emax at 25 µM is 107% and the EC50 was under 1 µM.
